Assay results reported in US20240158446A1, “CYCLIC COMPOUND HAVING SELECTIVE INHIBITORY ACTION ON KRAS OVER HRAS AND NRAS” (CHUGAI SEIYAKU KABUSHIKI KAISHA, priority 2021, published 2024).
Where two headings read alike, the source gives them in different places. *1 amine or outer side, *2 acyl side, *3 side chain or, on linkers, in order; H or OH if unused. Where a SMILES comes first, the peptide text is derived from it. Bridges are numbered along the chain shown (N, C = ends). [ ]: non-standard residue; d: D form. The star is where a group is joined. hPhe(3,5-F2-4-CF3) = N[C@@H](CCc1cc(F)c(C(F)(F)F)c(F)c1)C(=O)O; hPhe(3-Cl-4-CF3) = N[C@@H](CCc1ccc(C(F)(F)F)c(Cl)c1)C(=O)O; X38 = C#CCN([C@@H](Cc1ccc(C(F)(F)F)cc1)C(=O)[*:2])[*:1]; NPrPhe(4-CF3) = CCCN[C@@H](Cc1ccc(C(F)(F)F)cc1)C(=O)O; NPrPhe(4-Me) = CCCN[C@@H](Cc1ccc(C)cc1)C(=O)O; NMeGly(cPent) = CN[C@H](C(=O)O)C1CCCC1; X8 = C[C@@](N[*:1])(C(=O)[*:2])C1CC1; NMeD = CN[C@@H](CC(=O)O)C(=O)O; NMeL = CN[C@@H](CC(C)C)C(=O)O; Morpholide = C1CN(*)CCO1; NMeA = CN[C@@H](C)C(=O)O; Ac5c = NC1(C(=O)O)CCCC1; Aze = O=C(O)[C@@H]1CCN1; NEtG = CCNCC(=O)O; Sar = CNCC(=O)O

Tests used:
[1] = molecular target: GDP-bound KRAS wild-type protein (Homo sapiens, UniProt P01116); assay: Binding to KRAS by surface plasmon resonance (SPR), Single Cycle Kinetics; conditions: GDP-bound KRAS wild-type protein, read-out: KRAS KD
Sequence of GDP-bound KRAS wild-type protein (P01116 whole entry): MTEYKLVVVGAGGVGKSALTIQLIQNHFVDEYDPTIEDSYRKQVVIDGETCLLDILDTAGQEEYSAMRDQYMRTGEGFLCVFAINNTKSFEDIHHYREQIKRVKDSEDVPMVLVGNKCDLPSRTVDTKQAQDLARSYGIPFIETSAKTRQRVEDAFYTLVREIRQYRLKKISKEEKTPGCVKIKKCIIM

[2] = molecular target: GDP-bound HRAS wild-type protein (Homo sapiens, UniProt P01112); assay: Binding to HRAS by surface plasmon resonance (SPR), Single Cycle Kinetics; conditions: for HRAS/KRAS (ratio of KD value for HRAS to KD value for KRAS) / HRAS/KRAS (ratio of KD value with respect to HRAS to KD value with respect to KRAS): SPR, GDP-bound HRAS wild-type protein vs GDP-bound KRAS wild-type protein
Sequence of GDP-bound HRAS wild-type protein (P01112 whole entry): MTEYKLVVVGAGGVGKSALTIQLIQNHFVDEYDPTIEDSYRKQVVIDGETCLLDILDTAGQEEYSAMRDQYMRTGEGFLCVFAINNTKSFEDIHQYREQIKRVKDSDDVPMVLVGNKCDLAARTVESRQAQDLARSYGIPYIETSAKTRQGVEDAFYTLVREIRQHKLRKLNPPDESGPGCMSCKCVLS

[3] = molecular target: GDP-bound NRAS wild-type protein (Homo sapiens, UniProt P01111); assay: Binding to NRAS by surface plasmon resonance (SPR), Single Cycle Kinetics; conditions: for NRAS/KRAS (ratio of KD value for NRAS to KD value for KRAS) / NRAS/KRAS (ratio of KD value with respect to NRAS to KD value with respect to KRAS): SPR, GDP-bound NRAS wild-type protein vs GDP-bound KRAS wild-type protein
Sequence of GDP-bound NRAS wild-type protein (P01111 whole entry): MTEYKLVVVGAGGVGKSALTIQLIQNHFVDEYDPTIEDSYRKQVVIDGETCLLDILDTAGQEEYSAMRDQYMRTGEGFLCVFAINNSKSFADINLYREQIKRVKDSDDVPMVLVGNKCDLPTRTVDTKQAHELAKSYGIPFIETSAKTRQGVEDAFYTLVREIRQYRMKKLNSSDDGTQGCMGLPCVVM

[4] = SPR Single Cycle Kinetics, 1:1 binding model

Kd [1, 4] | Kd ([1]; SPR, Single Cycle Kinetics) | SMILES | HRAS/KRAS (ratio of KD value for HRAS to KD value for KRAS) [2] | NRAS/KRAS (ratio of KD value for NRAS to KD value for KRAS) [3] | also measured
 | 0.056 nM | CCC[C@H]1C(=O)N[C@@H]([C@@H](C)CC)C(=O)N(C)CC(=O)N(C)[C@H]2C/C=C\CCN(C2=O)[C@@H](Cc2ccc(C(F)(F)F)cc2)C(=O)N(C)CC(=O)N[C@@H](CCc2cc(F)c(C(F)(F)F)c(F)c2)C(=O)N2C[C@H](OCC)C[C@H]2C(=O)NC2(CCC2)C(=O)N(C)[C@@H](C2CCCC2)C(=O)N(C)[C@H](C(=O)N(C)C)CC(=O)N1C [PP1110, (2S,8S,12R,14S,20S,23S,27S,30S,36S,38Z)-20-cyclopentyl-8-[2-[3,5-difluoro-4-(trifluoromethyl)phenyl]ethyl]-12-ethoxy-N,N,4,19,22,26,32,35-octamethyl-30-[(1S)-1-methylpropyl]-3,6,9,15,18,21,25,28,31,34,42-undecaoxo-27-propyl-2-[[4-(trifluoromethyl)phenyl]methyl]spiro[1,4,7,10,16,19,22,26,29,32,35-undecazatricyclo[34.5.1.0^10,14]dotetracont-38-ene-17,1′-cyclobutane]-23-carboxamide] | B (a compound having 3 or more and less than 10 is denoted as B) | A (a compound having 10 or more and less than 20 is denoted as A) | 
 | 0.24 nM | CCC[C@H]1C(=O)N[C@@H]([C@@H](C)CC)C(=O)N(C)CC(=O)N(C)[C@H]2C/C=C\CCN(C2=O)[C@@H](Cc2ccc(C(F)(F)F)cc2)C(=O)N(C)CC(=O)N[C@@H](CCc2ccc(C(F)(F)F)c(Cl)c2)C(=O)N2C[C@@H](C)C[C@H]2C(=O)NC2(CC(C)(C)C2)C(=O)N(C)[C@@H](C2CCCC2)C(=O)N(C)[C@H](C(=O)N(C)C)CC(=O)N1C [PP2270] | B (a compound having 3 or more and less than 10 is denoted as B) | B (a compound having 3 or more and less than 10 is denoted as B) | 
 | 0.053 nM | CC[C@H](C)[C@@H]1NC(=O)[C@H](CC(C)C)N(C)C(=O)C[C@@H](C(=O)N2CCOCC2)N(C)C(=O)[C@H](C2CCCC2)N(C)C(=O)C2(CCC2)NC(=O)[C@@H]2C[C@@H](O)CN2C(=O)[C@H](CCc2cc(F)c(C(F)(F)F)c(F)c2)NC(=O)CN(C)C(=O)[C@H](Cc2ccc(C(F)(F)F)cc2)N2CCCC[C@@H](C2=O)N(C)C(=O)CN(C)C1=O [PP0868] | B (a compound having 3 or more and less than 10 is denoted as B) | C (A compound having a KD ratio of 0.1 or more and less than 3 is denoted as C) | 
 | 3.9 nM | CCO[C@@H]1C[C@H]2C(=O)NC3(CCC3)C(=O)N(C)[C@@H](C3CCCC3)C(=O)N(CC)[C@H](C(=O)N3CCOCC3)CC(=O)N(C)[C@@H](CC)C(=O)N[C@@H]([C@@H](C)CC)C(=O)N(C)CC(=O)N(C)[C@H]3CCCCCN(C3=O)[C@@H](Cc3ccc(C(F)(F)F)cc3)C(=O)N(C)CC(=O)N[C@@H](CCc3cc(F)c(C(F)(F)F)c(F)c3)C(=O)N2C1 [PP0944] | A (a compound having 10 or more and less than 20 is denoted as A) | A (a compound having 10 or more and less than 20 is denoted as A) | 
0.1 nM |  | CCCC[C@H]1C(=O)N[C@@H]([C@@H](C)CC)C(=O)N(C)CC(=O)N(C)[C@H]2C/C=C\CCN(C2=O)[C@@H](Cc2ccc(C(F)(F)F)cc2)C(=O)N(C)CC(=O)N[C@@H](CCc2ccc(C(F)(F)F)c(OC)c2)C(=O)N2C[C@H](OCC)C[C@H]2C(=O)NC2(CCC2)C(=O)N(C)[C@@H](C2CCCC2)C(=O)N(C)[C@H](C(=O)N(C)CC)CC(=O)N1C [PP2840] |  |  | HRAS/KRAS (ratio of KD value with respect to GDP-bound HRAS wild-type protein to KD value with respect to KRAS) ([2]; SPR KD ratio HRAS/KRAS, class symbols): A (a compound having 10 or more and less than 20 is denoted as A); NRAS/KRAS (ratio of KD value with respect to GDP-bound NRAS wild-type protein to KD value with respect to KRAS) ([3]; SPR KD ratio NRAS/KRAS, class symbols): A (a compound having 10 or more and less than 20 is denoted as A)
 | 0.11 nM | CCCOC[C@H]1C(=O)N[C@@H]([C@@H](C)CC)C(=O)N(C2CC2)CC(=O)N(C)[C@H]2C/C=C\CCN(C2=O)[C@@H](Cc2ccc(C)cc2)C(=O)N(C)CC(=O)N[C@@H](CCc2ccc(C(F)(F)F)c(OC)c2)C(=O)N2C[C@H](OCC)C[C@H]2C(=O)N(C)C2(CCC2)C(=O)N(C)[C@@H](C2CCCC2)C(=O)N(C)[C@H](C(=O)N(C)C)CC(=O)N1C [PP2330] | A (a compound having 10 or more and less than 20 is denoted as A) | A (a compound having 10 or more and less than 20 is denoted as A) | 

Further lines, the compound ahead of its results:

SMILES | Kd [1, 4] | Kd ([1]; SPR, Single Cycle Kinetics) | HRAS/KRAS (ratio of KD value for HRAS to KD value for KRAS) [2] | NRAS/KRAS (ratio of KD value for NRAS to KD value for KRAS) [3] | also measured
CCCN1C(=O)[C@@H]2CCN2C(=O)CN(CC)C(=O)[C@H]([C@@H](C)CC)NC(=O)[C@H](CC(C)C)N(C)C(=O)C[C@@H](C(=O)N2CCOCC2)N(C)C(=O)[C@H](C2CCCC2)N(C)C(=O)C2(CCCC2)NC(=O)[C@@H]2CCCN2C(=O)[C@H](CCc2ccc(C(F)(F)F)c(Cl)c2)NC(=O)CN(C)C(=O)[C@@H]1Cc1ccc(C(F)(F)F)cc1 [PP0259] ([NMeL]I[NEtG][Aze][NPrPhe(4-CF3)][Sar][hPhe(3-Cl-4-CF3)]P[Ac5c][NMeGly(cPent)][NMeD]-Morpholide; lactam N-11) | 0.42 nM |  | B (a compound having 3 or more and less than 10 is denoted as B) | C (A compound having a KD ratio of 0.1 or more and less than 3 is denoted as C) | 
C#CCN1C(=O)CN(C)C(=O)CN(C)C(=O)[C@H]([C@@H](C)CC)NC(=O)[C@H](CC(C)C)N(C)C(=O)C[C@@H](C(=O)N2CCOCC2)N(C)C(=O)[C@H](C2CCCC2)N(C)C(=O)C2(CCCC2)NC(=O)[C@@H]2CCCN2C(=O)[C@H](CCc2ccc(C(F)(F)F)c(Cl)c2)NC(=O)CN(C)C(=O)[C@@H]1Cc1ccc(C(F)(F)F)cc1 [PP0130] ([NMeL]I[Sar][Sar][X38][Sar][hPhe(3-Cl-4-CF3)]P[Ac5c][NMeGly(cPent)][NMeD]-Morpholide; lactam N-11) | 0.25 nM |  | C (A compound having a KD ratio of 0.1 or more and less than 3 is denoted as C) | C (A compound having a KD ratio of 0.1 or more and less than 3 is denoted as C) | 
CCCN1C(=O)[C@@H]2CCN2C(=O)[C@H](C)N(C)C(=O)[C@H]([C@@H](C)CC)NC(=O)[C@H](CC(C)C)N(C)C(=O)C[C@@H](C(=O)N2CCOCC2)N(C)C(=O)[C@H](C2CCCC2)N(C)C(=O)C2(CCCC2)NC(=O)[C@@H]2CCCN2C(=O)[C@H](CCc2ccc(C(F)(F)F)c(Cl)c2)NC(=O)CN(C)C(=O)[C@@H]1Cc1ccc(C)cc1 [PP0052] ([NMeL]I[NMeA][Aze][NPrPhe(4-Me)][Sar][hPhe(3-Cl-4-CF3)]P[Ac5c][NMeGly(cPent)][NMeD]-Morpholide; lactam N-11) | 0.12 nM |  | B (a compound having 3 or more and less than 10 is denoted as B) | C (A compound having a KD ratio of 0.1 or more and less than 3 is denoted as C) | 
CCO[C@@H]1C[C@H]2C(=O)NC3(CCC3)C(=O)N(C)[C@@H](C3CCCC3)C(=O)N(C)[C@H](C(=O)N(C)C)CC(=O)N(C)[C@@H](CC3CCC3)C(=O)N[C@@H]([C@@H](C)CC)C(=O)N(C)CC(=O)N(C)[C@H]3CCCCN(C3=O)[C@@H](Cc3ccc(C(F)(F)F)cc3)C(=O)N(C)CC(=O)N[C@@H](CCc3cc(F)c(C(F)(F)F)c(F)c3)C(=O)N2C1 [PP0698] | 0.015 nM |  |  |  | HRAS/KRAS (ratio of KD value with respect to HRAS to KD value with respect to KRAS) [2]: C (A compound having a KD ratio of 0.1 or more and less than 3 is denoted as C); NRAS/KRAS (ratio of KD value with respect to NRAS to KD value with respect to KRAS) [3]: C (A compound having a KD ratio of 0.1 or more and less than 3 is denoted as C)
CCCN1C(=O)CN(C)C(=O)CN(C)C(=O)[C@H]([C@@H](C)CC)NC(=O)[C@H](CC(C)C)N(C)C(=O)C[C@@H](C(=O)N(C)C)N(C)C(=O)[C@H](C2CCCC2)N(C)C(=O)[C@](C)(C2CC2)NC(=O)[C@@H]2CCCN2C(=O)[C@H](CCc2cc(F)c(C(F)(F)F)c(F)c2)NC(=O)CN(C)C(=O)[C@@H]1Cc1ccc(C(F)(F)F)cc1 [PP0734] ([NMeL]I[Sar][Sar][NPrPhe(4-CF3)][Sar][hPhe(3,5-F2-4-CF3)]P[X8][NMeGly(cPent)][NMeD]-NMe2; lactam N-11) | 0.38 nM |  |  |  | HRAS/KRAS (ratio of KD value with respect to HRAS to KD value with respect to KRAS) [2]: C (A compound having a KD ratio of 0.1 or more and less than 3 is denoted as C); NRAS/KRAS (ratio of KD value with respect to NRAS to KD value with respect to KRAS) [3]: B (a compound having 3 or more and less than 10 is denoted as B)
CCO[C@@H]1C[C@H]2C(=O)NC3(CC(C)(C)C3)C(=O)N(C)[C@@H](C3CCCC3)C(=O)N(C)[C@H](C(=O)N(C)CC)CC(=O)N(C)[C@@H](CC)C(=O)N[C@@H]([C@@H](C)CC)C(=O)N(C)CC(=O)N(C)[C@H]3C/C=C\CCN(C3=O)[C@@H](Cc3ccc(C(F)(F)F)cc3)C(=O)N(C)CC(=O)N[C@@H](CCc3cc(F)c(C(F)(F)F)c(F)c3)C(=O)N2C1 [PP1579] |  |  |  |  | Kd ([1]; SPR, Single Cycle Kinetics, 1:1 binding model): 0.087 nM; HRAS/KRAS (ratio of KD value for HRAS to KD value for KRAS) ([2]; KD ratio class): B (a compound having 3 or more and less than 10 is denoted as B); NRAS/KRAS (ratio of KD value for NRAS to KD value for KRAS) ([3]; KD ratio class): A (a compound having 10 or more and less than 20 is denoted as A)
